“Also recorded” adds a separate entry of the source.
What was measured:
[1] = tested on: sorting reaction (sortase cleavage of Seb-Spa490-524 P2 precursor at the LPXTG motif); format: cell-based, S. aureus OS2
[2] = tested on: cell wall sorting reaction (surface protein anchoring); format: cell-based, S. aureus OS2
[3] = tested on: cell wall synthesis; format: cell-based, staphylococci (S. aureus OS2)
[4] = tested on: staphylococci; format: cell-based, S. aureus OS2
[5] = tested on: wild-type staphylococci, strains SM317 and SM329; format: cell-based, S. aureus
[6] = tested on: S. aureus OS2 (pSeb-Spa490-524); format: cell-based
[7] = molecular target: sortase (Staphylococcus aureus, UniProt Q2FV99); format: biochemical; conditions: pre-incubation of staphylococcal extracts with 5 mM MTSET
[8] = molecular target: T1, SrtADN (Staphylococcus aureus, UniProt Q2FV99); format: biochemical, S. aureus; conditions: 5 mM MTSET or 5 mM pHMB, 5 μM SrtADN
[9] = molecular target: T1, SrtADN; format: biochemical, S. aureus; conditions: absence of peptidoglycan substrate
Source text: The N-terminal membrane anchor segment of […] (residues 2-25) were replaced with a six-histidine tag ([…]). In the absence of the peptidoglycan substrate, SrtA DN catalyzes peptide bond hydrolysis and cleaves LPETG peptide, presumably between the threonine and the glycine (Ton-That et al., 2000).

T1 sequence (Q2FV99 26-206): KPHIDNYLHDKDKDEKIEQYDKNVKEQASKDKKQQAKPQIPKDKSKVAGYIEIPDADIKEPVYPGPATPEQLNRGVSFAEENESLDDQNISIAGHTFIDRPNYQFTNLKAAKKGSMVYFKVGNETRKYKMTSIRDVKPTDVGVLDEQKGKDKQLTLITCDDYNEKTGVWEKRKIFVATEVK
Sequence of sortase (Q2FV99 whole entry): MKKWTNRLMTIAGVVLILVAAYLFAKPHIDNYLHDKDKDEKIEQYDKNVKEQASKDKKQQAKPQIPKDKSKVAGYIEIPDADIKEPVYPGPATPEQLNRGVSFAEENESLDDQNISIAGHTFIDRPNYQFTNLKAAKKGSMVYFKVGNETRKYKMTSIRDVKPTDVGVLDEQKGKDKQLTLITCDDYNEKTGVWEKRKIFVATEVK

## CS(=O)(=O)SCCS(=O)(=O)O [(2-sulfonatoethyl)methanethiosulfonate]
[1]
  interference with cleavage of sorting signals at the LPXTG motif / cell wall sorting (in words): interfered with sorting albeit not as effectively as MTSET

## O=C(O)CI [iodoacetic acid]
[1]
  interference with cleavage of sorting signals at the LPXTG motif / cell wall sorting (in words): did not

## moenomycin
[2]
  [P2]/[M]: 0.24 ± 0.04
  effect on rate of cell wall sorting (P2 precursor accumulation), in words: similar, albeit weaker effect
[3]
  fold inhibition of cell wall synthesis: 1.6 fold
[4]
  growth rate of staphylococci: reduced the growth rate

## penicillin
[2]
  [P2]/[M]: 0.10 ± 0.01
  effect on rate of cell wall sorting (P2 precursor accumulation), in words: did not alter the rate of cell wall sorting
[3]
  fold inhibition of cell wall synthesis: 3.3 fold
[4]
  growth rate of staphylococci: reduced the growth rate

## lysostaphin
[5]
  growth inhibition by lysostaphin: inhibited growth of wild-type staphylococci

## C[N+](C)(C)CCSS(C)(=O)=O [[2-(trimethylammonium)ethyl]methanethiosulfonate]
[1]
  interference with cleavage of sorting signals at the LPXTG motif / cell wall sorting (in words): interfered with the cleavage of sorting signals at the LPXTG motif
[6]
  incorporation of [35S]methionine by staphylococci: prevented incorporation
  protein export (Sec-dependent export of P1 precursor): remained unaltered
[7]
  inhibition of LPXTG peptide cleavage: inhibited
[8]
  inhibition of LPXTG peptide cleavage: inhibited; also recorded: abolished all enzymatic activity

## methylmethane thiosulfonate
[9]
  inhibition of LPETG peptide cleavage (peptide bond hydrolysis): inhibited

## CCN1C(=O)C=CC1=O [N-ethylmaleimide]
[1]
  interference with cleavage of sorting signals at the LPXTG motif / cell wall sorting (in words): did not

## O[C@H](CS)[C@H](O)CS (racemic) [dithiothreitol (DTT), dithiothreitol]
[1]
  interference with cleavage of sorting signals at the LPXTG motif / cell wall sorting (in words): did not affect the sorting reaction

## NC(=O)CI [iodoacetamide]
[1]
  interference with cleavage of sorting signals at the LPXTG motif / cell wall sorting (in words): did not

## CN[C@H](CC(C)C)C(=O)N[C@H]1C(=O)N[C@@H](CC(N)=O)C(=O)N[C@H]2C(=O)N[C@H]3C(=O)N[C@H](C(=O)N[C@H](C(=O)O)c4cc(O)cc(O)c4-c4cc3ccc4O)[C@H](O)c3ccc(c(Cl)c3)Oc3cc2cc(c3O[C@@H]2O[C@H](CO)[C@@H](O)[C@H](O)[C@H]2O[C@H]2C[C@](C)(N)[C@H](O)[C@H](C)O2)Oc2ccc(cc2Cl)[C@H]1O [vancomycin]
[2]
  [P2]/[M]: 0.47 ± 0.04
  effect on rate of cell wall sorting (P2 precursor accumulation), in words: led to a steady accumulation of P2 precursor
[3]
  fold inhibition of cell wall synthesis: 9.5 fold
  inhibition of cell wall synthesis (lysine/leucine ratio): 20 fold

## OCCS [2-mercaptoethanol]
[1]
  interference with cleavage of sorting signals at the LPXTG motif / cell wall sorting (in words): did not affect the sorting reaction

## p-hydroxymercuribenzoic acid [p-hydroxymercuribenzoic acid (pHMB)]
[1]
  interference with cleavage of sorting signals at the LPXTG motif / cell wall sorting (in words): displayed an inhibitory effect
[8]
  inhibition of LPXTG peptide cleavage: inhibited
